What all share (format): biochemical
Assay [1] deals with T1, recombinant human DAO (diamine oxidase) (Homo sapiens, UniProt P19801).
T1 construct: purchased R&D systems
T1 sequence (P19801 20-751): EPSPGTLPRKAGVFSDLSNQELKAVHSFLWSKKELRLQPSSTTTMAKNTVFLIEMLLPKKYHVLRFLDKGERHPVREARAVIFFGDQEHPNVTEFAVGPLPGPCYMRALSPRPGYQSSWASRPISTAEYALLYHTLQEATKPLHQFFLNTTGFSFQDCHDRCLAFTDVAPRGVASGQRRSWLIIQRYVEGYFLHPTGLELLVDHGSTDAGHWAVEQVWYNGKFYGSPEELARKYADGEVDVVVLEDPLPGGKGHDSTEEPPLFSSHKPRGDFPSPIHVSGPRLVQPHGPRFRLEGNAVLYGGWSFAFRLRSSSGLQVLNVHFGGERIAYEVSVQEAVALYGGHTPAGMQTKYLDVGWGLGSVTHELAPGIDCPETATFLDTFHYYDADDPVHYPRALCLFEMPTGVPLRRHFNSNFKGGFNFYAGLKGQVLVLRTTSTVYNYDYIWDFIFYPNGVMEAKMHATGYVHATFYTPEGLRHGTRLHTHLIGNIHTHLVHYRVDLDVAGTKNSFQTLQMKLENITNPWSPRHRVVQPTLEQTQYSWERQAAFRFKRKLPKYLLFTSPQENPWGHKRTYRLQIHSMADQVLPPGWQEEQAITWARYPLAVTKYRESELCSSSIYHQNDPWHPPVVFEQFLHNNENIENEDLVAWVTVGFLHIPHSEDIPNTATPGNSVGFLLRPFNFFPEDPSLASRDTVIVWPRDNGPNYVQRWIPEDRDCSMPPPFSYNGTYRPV
The experiment in a line: Activity on recombinant human DAO, Amplex Red method, 1 mM putrescine substrate. The conditions noted are these: recombinant human DAO, 1 mM putrescine; * = between 10 and 100 nM, ** = between 300 and 1000 nM; read-out: Inhibitory Activity (IC50, nM) DAO. The method in brief: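 Inhibition of recombinant human DAO (diamine oxidase, R&D systems) was assessed with the Amplex Red Hydrogen Peroxide Assay Kit. Hydrogen peroxide produced from 1 mM putrescine was detected through an HRP-coupled reaction that converts Amplex Red into fluorescent resorufin, read at 544 nm excitation and 590 nm emission. IC50 values came from four-parameter logistic fits in GraphPad Prism.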

In assay [2] the target is T2, recombinant human MAO-A (monoamine oxidase-A) (Homo sapiens, UniProt P21397).
T2 construct: purchased Sigma-Aldrich
T2 sequence (P21397 1-527): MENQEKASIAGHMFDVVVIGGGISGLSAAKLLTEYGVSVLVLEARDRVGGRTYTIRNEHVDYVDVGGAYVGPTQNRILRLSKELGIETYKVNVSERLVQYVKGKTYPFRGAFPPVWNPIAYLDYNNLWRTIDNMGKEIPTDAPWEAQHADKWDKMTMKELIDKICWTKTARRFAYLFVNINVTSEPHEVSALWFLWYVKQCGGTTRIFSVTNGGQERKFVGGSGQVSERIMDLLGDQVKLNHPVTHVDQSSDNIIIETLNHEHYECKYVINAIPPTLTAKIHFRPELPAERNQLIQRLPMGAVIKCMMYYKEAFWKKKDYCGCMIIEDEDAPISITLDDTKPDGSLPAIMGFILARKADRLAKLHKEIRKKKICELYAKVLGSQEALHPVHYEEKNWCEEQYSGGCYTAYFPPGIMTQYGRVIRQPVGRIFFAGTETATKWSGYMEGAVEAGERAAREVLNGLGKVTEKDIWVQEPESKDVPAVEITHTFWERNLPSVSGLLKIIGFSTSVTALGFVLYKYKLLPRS
Put plainly: Activity on recombinant human MAO-A, Amplex Red method, 0.5 mM tyramine substrate. Particulars: 0.5 mM tyramine, read-out: Inhibitory Activity (IC50, nM) MAO-A. The procedure, abridged:
(§1)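 Enzyme in pH 7.4 phosphate buffer; 30 min, 37° C with compound (DMSO <1%); start with 200 uM Amplex Red + 1 U/mL HRP + tyramine 0.5 mM (MAO-A) or benzylamine 1 mM (MAO-B); kinetic read ex 544/em 590, 1-2 h; % rate decrease vs DMSO control → IC50, 4-parameter fit.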

Another assay concerns the target T3, recombinant human VAP-1 (Homo sapiens, UniProt Q16853).
T3 construct: purchased R&D systems
T3 sequence (Q16853 1-763): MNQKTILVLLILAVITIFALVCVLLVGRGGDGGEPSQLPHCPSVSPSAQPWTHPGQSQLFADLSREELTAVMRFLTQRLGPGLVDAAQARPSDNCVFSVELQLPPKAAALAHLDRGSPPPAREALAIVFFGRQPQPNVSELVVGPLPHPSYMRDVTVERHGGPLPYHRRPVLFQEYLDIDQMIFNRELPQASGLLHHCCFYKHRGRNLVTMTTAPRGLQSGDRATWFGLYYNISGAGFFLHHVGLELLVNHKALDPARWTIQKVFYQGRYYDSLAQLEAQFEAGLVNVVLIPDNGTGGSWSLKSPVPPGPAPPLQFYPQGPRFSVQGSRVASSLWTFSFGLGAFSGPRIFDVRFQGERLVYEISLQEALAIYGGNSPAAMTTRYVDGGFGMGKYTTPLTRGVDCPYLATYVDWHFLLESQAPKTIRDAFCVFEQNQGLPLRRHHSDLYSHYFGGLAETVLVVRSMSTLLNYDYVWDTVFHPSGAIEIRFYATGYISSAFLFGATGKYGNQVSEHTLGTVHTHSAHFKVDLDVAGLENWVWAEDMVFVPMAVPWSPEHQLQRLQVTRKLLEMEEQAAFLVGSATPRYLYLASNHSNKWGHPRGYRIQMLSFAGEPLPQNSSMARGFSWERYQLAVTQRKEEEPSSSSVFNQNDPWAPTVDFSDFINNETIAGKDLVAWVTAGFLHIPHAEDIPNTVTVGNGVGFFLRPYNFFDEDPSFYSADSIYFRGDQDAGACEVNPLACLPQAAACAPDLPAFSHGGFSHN
Put plainly: Activity on recombinant human VAP-1, Amplex Red HRP-coupled hydrogen peroxide assay, benzylamine substrate. The conditions noted are these: recombinant human VAP-1, benzylamine substrate, 30 min preincubation at 37° C.; read-out: Inhibitory Activity (IC50, nM) human VAP-1. The method in brief:
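Enzyme in 50 mM sodium phosphate (pH 7.4) is exposed to test compound for 30 min at 37 °C. Benzylamine (1 mM) with HRP and Amplex Red then starts the reaction, and the fluorescence rate, relative to a DMSO-only control, gives IC50.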

The target in assay [3] is T4, recombinant human MAO-B (monoamine oxidase-B) (Homo sapiens, UniProt P27338).
T4 construct: purchased Sigma-Aldrich
T4 sequence (P27338 1-520): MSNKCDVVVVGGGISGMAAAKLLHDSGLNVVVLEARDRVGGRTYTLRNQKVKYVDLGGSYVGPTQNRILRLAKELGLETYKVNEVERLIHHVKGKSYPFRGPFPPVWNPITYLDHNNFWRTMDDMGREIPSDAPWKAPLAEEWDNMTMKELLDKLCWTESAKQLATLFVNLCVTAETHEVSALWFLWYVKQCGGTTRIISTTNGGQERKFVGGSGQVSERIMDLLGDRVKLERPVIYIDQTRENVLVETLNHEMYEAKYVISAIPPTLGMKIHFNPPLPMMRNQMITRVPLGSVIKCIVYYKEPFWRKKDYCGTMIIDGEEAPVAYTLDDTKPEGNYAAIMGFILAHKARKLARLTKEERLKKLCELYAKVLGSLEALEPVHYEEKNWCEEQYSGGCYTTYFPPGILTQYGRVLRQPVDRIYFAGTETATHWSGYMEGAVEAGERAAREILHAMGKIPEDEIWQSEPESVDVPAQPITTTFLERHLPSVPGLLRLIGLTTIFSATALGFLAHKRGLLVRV
Put plainly: Activity on recombinant human MAO-B, Amplex Red method, 1 mM benzylamine substrate. The conditions noted are these: 1 mM benzylamine, read-out: Inhibitory Activity (IC50, nM) MAO-B. The method in brief: as §1

Each structure is given as a SMILES string. Counter-ions that a name gives are not always drawn.

Turning to `COc1cc(-c2cccc(-n3cnn(C/C(=C/F)CN)c3=O)c2)ccn1` [Example 79, 2-[(2E)-2-(aminomethyl)-3-fluoroprop-2-en-1-yl]-4-[3-(2-methoxypyridin-4-yl)phenyl]-2,4-dihydro-3H-1,2,4-triazol-3-one hydrochloride], the IC50 in assay [1] was 2.2 nM; in assay [2], greater than 100000 nM; on recombinant human VAP-1, 0.47 nM; in assay [3] it was 7900 nM.
For `CC(=O)Nc1cc(-c2cccc(-n3cnn(C/C(=C\F)CN)c3=O)c2)ccn1` [Example 80, N-[4-(3-{1-[(2Z)-2-(aminomethyl)-3-fluoroprop-2-en-1-yl]-5-oxo-1,5-dihydro-4H-1,2,4-triazol-4-yl}phenyl)pyridin-2-yl]acetamide hydrochloride], in that order: 12 nM, greater than 100000 nM, 1.1 nM and greater than 10000 nM.
For `CC(=O)Nc1cc(-c2cccc(-n3cnn(C/C(=C/F)CN)c3=O)c2)ccn1` [Example 81, N-[4-(3-{1-[(2E)-2-(aminomethyl)-3-fluoroprop-2-en-1-yl]-5-oxo-1,5-dihydro-4H-1,2,4-triazol-4-yl}phenyl)pyridin-2-yl]acetamide hydrochloride], in that order: less than 100 nM, greater than 100000 nM, 0.54 nM and 7520 nM.
For `NC/C(=C\F)Cn1ncn(-c2cccc(-c3cccnc3)c2)c1=O` [Example 82, 2-[(2E)-2-(aminomethyl)-3-fluoroprop-2-en-1-yl]-4-[3-(pyridin-3-yl)phenyl]-2,4-dihydro-3H-1,2,4-triazol-3-one hydrochloride], in that order: less than 100 nM, greater than 100000 nM, 0.8 nM and 18000 nM.
In the case of `COc1ccc(-c2cccc(-n3cnn(C/C(=C/F)CN)c3=O)c2)cn1` [Example 83, 2-[(2E)-2-(aminomethyl)-3-fluoroprop-2-en-1-yl]-4-[3-(6-methoxypyridin-3-yl)phenyl]-2,4-dihydro-3H-1,2,4-triazol-3-one hydrochloride], the IC50 in assay [1] is less than 30 nM; in assay [2], greater than 100000 nM; at recombinant human VAP-1, 0.88 nM; in assay [3], 2460 nM.
The like results for `NC/C(=C\F)Cn1ncn(-c2cccc(-c3ccc(C(F)(F)F)nc3)c2)c1=O` [Example 84, 2-[(2E)-2-(aminomethyl)-3-fluoroprop-2-en-1-yl]-4-{3-[6-(trifluoromethyl)pyridin-3-yl]phenyl}-2,4-dihydro-3H-1,2,4-triazol-3-one hydrochloride] were, in that order, less than 10 nM, greater than 100000 nM, 0.78 nM and 3000 nM.
As to `NC/C(=C\F)Cn1ncn(-c2cccc(-c3ccc(Cl)nc3)c2)c1=O` [Example 85, 2-[(2E)-2-(aminomethyl)-3-fluoroprop-2-en-1-yl]-4-[3-(6-chloropyridin-3-yl)phenyl]-2,4-dihydro-3H-1,2,4-triazol-3-one hydrochloride], the IC50 in assay [1] was less than 10 nM; in assay [2] it was greater than 100000 nM; at recombinant human VAP-1, 0.62 nM; in assay [3], 1800 nM.
The like results for `NC/C(=C\F)Cn1ncn(-c2cccc(-c3ccc(N4CCOCC4)nc3)c2)c1=O` [Example 86, 2-[(2E)-2-(aminomethyl)-3-fluoroprop-2-en-1-yl]-4-{3-[6-(morpholin-4-yl)pyridin-3-yl]phenyl}-2,4-dihydro-3H-1,2,4-triazol-3-one hydrochloride] were, in that order, less than 100 nM, greater than 100000 nM, 0.62 nM and 1230 nM.
The like results for `COc1ncc(-c2cccc(-n3cnn(C/C(=C/F)CN)c3=O)c2)cc1C(F)(F)F` [Example 87, 2-[(2E)-2-(aminomethyl)-3-fluoroprop-2-en-1-yl]-4-{3-[6-methoxy-5-(trifluoromethyl)pyridin-3-yl]phenyl}-2,4-dihydro-3H-1,2,4-triazol-3-one hydrochloride] were, in that order, less than 100 nM, greater than 100000 nM, 1 nM and 22 nM.
For `NC/C(=C\F)Cn1ncn(-c2cccc(-c3cnc(O)c(C(F)(F)F)c3)c2)c1=O` [Example 88, 2-[(2E)-2-(aminomethyl)-3-fluoroprop-2-en-1-yl]-4-{3-[6-hydroxy-5-(trifluoromethyl)pyridin-3-yl]phenyl}-2,4-dihydro-3H-1,2,4-triazol-3-one hydrochloride], in that order: less than 10 nM, greater than 100000 nM, 1.1 nM and 9600 nM.
On to `Cc1cc(-c2cccc(-n3cnn(C/C(=C/F)CN)c3=O)c2)cn(C)c1=O` [Example 89, 5-(3-{1-[(2E)-2-(aminomethyl)-3-fluoroprop-2-en-1-yl]-5-oxo-1,5-dihydro-4H-1,2,4-triazol-4-yl}phenyl)-1,3-dimethylpyridin-2(1H)-one hydrochloride], for which the IC50 in assay [1] is 4.7 nM; in assay [2] it was greater than 100000 nM; at recombinant human VAP-1, 0.6 nM; in assay [3], greater than 10000 nM.

The values are drawn from patent publication US11492335B2, “Aryl or heteroaryl triazolone derivatives or salts thereof, or pharmaceutical compositions comprising the same” (YUHAN CORPORATION, priority 2018, dated 2022).
